According to patent US20100168072A1, “Drug Combinations for the Treatment of Duchenne Muscular Dystrophy” (BIOMARIN IGA LIMITED, priority 2007, published 2010):

System: Utrophin A promoter linked to a luciferase reporter gene (H2K/mdx/Utro A reporter cell line)
Assay: Luciferase reporter assay (murine H2K cells)
Type: cell-based
Conditions: Mus musculus; final concentration of 10 μM; incubated for a further 48 hrs
Method: The cell line used for the screen is an immortalized mdx mouse H2K cell line that has been stably transfected with a plasmid containing ≈5 kb fragment of the Utrophin A promoter including the first untranslated […] linked to a luciferase reporter gene.
Under conditions of low temperature and interferon containing media, the cells remain as myoblasts. These are plated into 96 well plates and cultured in the presence of compound for three days. The level of luciferase is then determined by cell lysis and reading of the light output from the expressed luciferase gene utilising a plate luminometer.
The H2K/mdx/Utro A reporter cell line was passaged twice a week until ≦30% confluent. The cells were grown at 33° C. in the presence of 10% CO2
To remove the myoblasts for platting, they were incubated with Trypsin/EDTA until the monolayer started to detach.
• DMEM Gibco 41966 • 20% FCS • 1% Pen/Strep • 1% glutamine • 10 mls Chick embryo extract • Interferon(1276 905 Roche) Add fresh 10 μl/50 mls medium
The H2K/mdx/Utro A reporter cell line cells were plated out into 96 well plates (Falcon 353296, white opaque) at a density of approximately 5000 cells/well in 190 μl normal growth medium. The plates were then incubated at 33° C. in the presence of 10% CO2 for 24 hrs.
Compounds were dosed by adding 10 μl of diluted compound to each well giving a final concentration of 10 μM. The plates were then incubated for a further 48 hrs
Cells were then lysed in situ following the manufacture's protocols (Promega Steady-Glo Luciferase Assay System (E2520). Then counted for 10 seconds using a plate luminometer (Victor1420).

First: CN(C)c1ccc(-n2nc3ccc(N)cc3n2)cc1 [Example 41, 2-(4-(dimethylamino)phenyl)-2H-benzo[d][1,2,3]triazol-5-amine]
Second: CCc1ccc(-n2nc3ccc(N)cc3n2)cc1 [Example 68, 2-(4-ethylphenyl)-2H-benzo[d][1,2,3]triazol-5-amine]
The activity at 10 µM of the first is higher: 301 to 400% for the first, 201 to 300% for the second.

`CN1CCN(c2ccc(-n3nc4ccc(N)cc4n3)cc2)CC1` [Example 42, 2-(4-(4-methylpiperazin-1-yl)phenyl)-2H-benzo[d][1,2,3]triazol-5-amine] and `Cc1ccc(-n2nc3ccc(N)cc3n2)cc1C` [Example 63, 2-(3,4-dimethylphenyl)-2H-benzo[d][1,2,3]triazol-5-amine] cannot be ordered by activity at 10 µM: < 200% for the first, < 200% for the second.

First: Cc1cc2nn(-c3ccc(Cl)cc3)nc2cc1N [Example 43, 2-(4-chlorophenyl)-6-methyl-2H-benzo[d][1,2,3]triazol-5-amine]
Second: Cc1ccc(-n2nc3cc(C)c(N)cc3n2)cc1 [Example 65, 6-methyl-2-p-tolyl-2H-benzo[d][1,2,3]triazol-5-amine]
The activity at 10 µM of the first is higher: > 401% for the first, 201 to 300% for the second.

Compared with `CS(=O)(=O)c1ccc2cn(-c3ccc(Cl)cc3)nc2c1` [Example 44, 2-(4-chlorophenyl)-6-(methylsulfonyl)-2H-indazole], `CC(C)S(=O)(=O)c1ccc2cn(-c3ccc(Cl)cc3)nc2c1` [Example 56, 2-(4′-Chlorophenyl)-6-(isopropylsulfonyl)-2H-indazole] is higher in activity at 10 µM: 201 to 300% for the first, > 401% for the second.

Going from `O=[N+]([O-])c1ccc2cn(-c3ccc(Cl)cc3)nc2c1` [Example 45, 2-(4-chlorophenyl)-6-nitro-2H-indazole] to `Clc1ccc(-n2cc3ccccc3n2)cc1` [Example 48, 2-(4-chlorophenyl)-2H-indazole], the activity at 10 µM rises from < 200% to > 401%.

`CC(C)C(=O)Nc1ccc2cn(-c3ccc(Cl)cc3)nc2c1` [Example 46, N-(2-(4-chlorophenyl)-2H-indazol-6-yl)isobutyramide] and `CC(C)C(=O)Nc1ccc2nn(-c3ccc(Cl)c(Cl)c3)nc2c1` [Example 53, N-(2-(3,4-Dichlorophenyl)-2H-benzo[d][1,2,3]triazol-5-yl)isobutyramide] cannot be ordered by activity at 10 µM: > 401% for the first, > 401% for the second.

First: CS(=O)(=O)c1ccc2nn(-c3ccc(Cl)cc3)[n+]([O-])c2c1 [Example 47, 2-(4-chlorophenyl)-6-(methylsulfonyl)-2H-benzo[d][1,2,3]triazole 1-oxide]
Second: CS(=O)(=O)c1ccc2nn(-c3ccc4ccccc4c3)[n+]([O-])c2c1 [Example 54, 6-(Methylsulfonyl)-2-(naphthalen-2-yl)-2H-benzo[d][1,2,3]triazole 1-oxide]
The activity at 10 µM of the first is lower: < 200% for the first, 201 to 300% for the second.

Going from `CS(=O)(=O)c1ccc2nn(-c3ccc(Cl)cc3)nc2c1` [Example 49, 2-(4-chlorophenyl)-5-(methylsulfonyl)-2H-benzo[d][1,2,3]triazole] to `CCS(=O)(=O)c1ccc2nn(-c3ccc(Cl)cc3)nc2c1` [Example 52, 2-(4′-chlorophenyl)-5-(ethylsulfonyl)-benzotriazole], the activity at 10 µM rises from < 200% to > 401%.

Compared with `CS(=O)(=O)c1ccc2nn(-c3ccc(Cl)c(Cl)c3)nc2c1` [Example 50, 2-(3,4-dichlorophenyl)-5-(methylsulfonyl)-2H-benzo[d][1,2,3]triazole], `CCS(=O)(=O)c1ccc2nn(-c3ccc(Cl)c(Cl)c3)nc2c1` [Example 51, 2-(3′,4′-dichlorophenyl)-5-(ethylsulfonyl)-benzotriazole] is higher in activity at 10 µM: 201 to 300% for the first, 301 to 400% for the second.

Compared with `CS(=O)(=O)c1ccc2nn(-c3ccc4ccccc4c3)nc2c1` [Example 55, 5-(Methylsulfonyl)-2-(naphthalen-2-yl)-2H-benzo[d][1,2,3]triazole], `CC(=O)Nc1ccc2nn(-c3ccc(F)cc3)nc2c1` [Example 69, N-(2-(4-fluorophenyl)-2H-benzo[d][1,2,3]triazol-5-yl)acetamide] is lower in activity at 10 µM: > 401% for the first, 201 to 300% for the second.

First: CCOc1ccc(-n2nc3cc(C)c(N)cc3n2)cc1 [Example 64, 2-(4-ethoxyphenyl)-6-methyl-2H-benzo[d][1,2,3]triazol-5-amine]
Second: COc1ccc(-n2nc3cc(C)c(NC(C)=O)cc3n2)cc1 [Example 66, N-(2-(4-methoxyphenyl)-6-methyl-2H-benzo[d][1,2,3]triazol-5-yl)acetamide]
The activity at 10 µM of the first is higher: 201 to 300% for the first, < 200% for the second.

With `CC(=O)Nc1cc2nn(-c3ccccc3)nc2cc1C` [Example 67, N-(6-methyl-2-phenyl-2H-benzo[d][1,2,3]triazol-5-yl)acetamide] the activity at 10 µM was 201 to 300%.

System: Primary cultures of skeletal muscle cells
Assay: Primary cultures of skeletal muscle cells treated with GTE and EGCG (MyHC staining, Western blot)
Type: cell-based, mice
Conditions: Western blot, myotube cultures treated for 7 days
Method: GTE and EGCG also display unexpected pro myogenic properties. Primary cultures of skeletal muscle cells were established from both normal and dystrophic mice and treated with GTE and EGCG for 1-7 days. […] The amount of myotubes reached similar level with both agents compared to control thereafter. Western-blot analysis was performed on myotube cultures treated for 7 days.

With `O=C(O[C@@H]1Cc2c(O)cc(O)cc2O[C@@H]1c1cc(O)c(O)c(O)c1)c1cc(O)c(O)c(O)c1` [EGCG, epigallocatechin gallate] the expression of desmin was “down-regulated”.

For `O=C(O[C@@H]1Cc2c(O)cc(O)cc2O[C@@H]1c1cc(O)c(O)c(O)c1)c1cc(O)c(O)c(O)c1` [EGCG, epigallocatechin gallate], the “expression of muscle-specific proteins (dystrophin in control cultures, sarcomeric alpha actinin, MyHC)” value was “promoted the expression”.

In the case of `O=C(O[C@@H]1Cc2c(O)cc(O)cc2O[C@@H]1c1cc(O)c(O)c(O)c1)c1cc(O)c(O)c(O)c1` [EGCG, epigallocatechin gallate], the myogenin expression is reported as “unchanged”.

Same assay, conditions: within the first 2-4 days of application; normal and dystrophic mice cells

With `O=C(O[C@@H]1Cc2c(O)cc(O)cc2O[C@@H]1c1cc(O)c(O)c(O)c1)c1cc(O)c(O)c(O)c1` [EGCG, epigallocatechin gallate] the “rate of formation of myotubes (in situ staining of MyHC)” value was “concentration-dependently stimulated”.

System: mdx hearts
Assay: not given
Conditions: cited from earlier work

In the case of `CCCc1nn(C)c2c(=O)[nH]c(-c3cc(S(=O)(=O)N4CCN(C)CC4)ccc3OCC)nc12` [sildenafil], the myocardial contractile performance is given as “prevents deterioration”.
